# Source: patent publication US8637525B2, “Compounds for the reduction of beta-amyloid production” (Bristol-Myers Squibb Company, priority 2009, dated 2014)
# Counter-ions that a name gives are not always drawn. Like-named read-outs stand apart in the source and are kept apart here.
# Tested on: Aβ1-42 production
# Experiment: Cellular assay for inhibition of Aβ1-42 production (H4 APP751 SWE clone 8.20)
# Assay type: cell-based
# Conditions: H4 APP751 SWE clone 8.20 cells, 19 h incubation
# Method in brief: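 Inhibition values are IC50s fitted to Viewlux counts after a 19 h compound exposure at 37 °C. Aβ42 was captured by the neoepitope-specific antibody 565 (0.8 ng/well) paired with N-terminal 26D6 (75 ng/well), incubated overnight at 4 °C in pH 7.4 Tris-HCl buffer containing 0.2% BSA.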
# [1] = 19 h, class symbols, read-out: Activity Rating (Aβ42 cellular IC50)
# [2] = 19 h, read-out: Activity Rating (Aβ42 cellular IC50), numeric value
# [3] = class symbols, read-out: Activity Rating (Aβ42 cellular IC50)
IC50 [1] [nM],IC50 [3] [nM],SMILES,also measured
10 to 100,,"CCN(C)c1nc(Nc2ccc(-n3cnc(Cl)c3)c(OC)c2)nc2c1CCCC2c1ccc(F)cc1 (stereo not shown) [Example 126, N^2-(4-(4-Chloro-1H-imidazol-1-yl)-3-methoxyphenyl)-N^4-ethyl-8-(4-fluorophenyl)-N^4-methyl-5,6,7,8-tetrahydroquinazoline-2,4-diamine]",
,,"COc1cc(Nc2nc3c(c(N4CC[C@@H](F)C4)n2)COC3c2ccc(F)cc2)ccc1-n1cnc(Cl)c1 (mixture of isomers) [Example 83, N-(4-(4-chloro-1H-imidazol-1-yl)-3-methoxyphenyl)-7-(4-fluorophenyl)-4-((R)-3-fluoropyrrolidin-1-yl)-5,7-dihydrofuro[3,4-d]pyrimidin-2-amine, 2 TFA]","IC50 (class symbols, TFA, read-out: Activity Rating (Aβ42 cellular IC50)): 10 to 100 nM"
10 to 100,,"CCNc1nc(Nc2ccc(-n3cnc(Cl)c3)c(OC)c2)nc2c1CCOC2c1ccc(F)cc1 (racemic) [Example 88, N2-(4-(4-chloro-1H-imidazol-1-yl)-3-methoxyphenyl)-N4-ethyl-8-(4-fluorophenyl)-6,8-dihydro-5H-pyrano[3,4-d]pyrimidine-2,4-diamine]",
,,"CCNc1nc(Nc2ccc(-n3cnc(C)n3)c(F)c2)nc2c1CN(CC(F)F)CC2c1ccccc1 (stereo not shown) [Example 195, 6-(2,2-difluoroethyl)-N4-ethyl-N2-(3-fluoro-4-(3-methyl-1H-1,2,4-triazol-1-yl)phenyl)-8-phenyl-5,6,7,8-tetrahydropyrido[4,3-d]pyrimidine-2,4-diamine]",IC50 [2]: 17 nM
,10 to 100,"COc1cc(Nc2nc3c(c(N(C)C)n2)CCC3c2ccccc2)ccc1-n1cnc(Cl)c1 (single isomer, unassigned) [Example 4B, N^2-(4-(4-chloro-1H-imidazol-1-yl)-3-methoxyphenyl)-N^4,N^4-dimethyl-7-phenyl-6,7-dihydro-5H-cyclopenta[d]pyrimidine-2,4-diamine]",
,1.5 to 9.9,"CNc1nc(Nc2ccc(-n3cnc(Cl)c3)c(OC)c2)nc2c1CCCC2c1ccccc1 (stereo not shown) [Example 203A, N2-(4-(4-chloro-1H-imidazol-1-yl)-3-methoxyphenyl)-N4-methyl-8-phenyl-5,6,7,8-tetrahydroquinazoline-2,4-diamine]",
,10 to 100,"COc1cc(Nc2nc3c(c(N4CC(Cl)C4)n2)CCC3c2ccccc2)ccc1-n1cnc(Cl)c1 (stereo not shown) [Example 181, N-(4-(4-chloro-1H-imidazol-1-yl)-3-methoxyphenyl)-4-(3-chloroazetidin-1-yl)-7-phenyl-6,7-dihydro-5H-cyclopenta[d]pyrimidin-2-amine]",
,,"CCNc1nc(Nc2ccc(-n3cnc(Cl)c3)c(OC)c2)nc2c1CN(S(C)(=O)=O)CC2c1ccccc1 (stereo not shown) [Example 134A, N2-(4-(4-chloro-1H-imidazol-1-yl)-3-methoxyphenyl)-N4-ethyl-6-(methylsulfonyl)-8-phenyl-5,6,7,8-tetrahydropyrido[4,3-d]pyrimidine-2,4-diamine]",IC50 [2]: 3.6 nM
,10 to 100,"CNc1nc(Nc2ccc(-n3cnc(Cl)c3)c(OC)c2)nc2c1CCC2c1cc(F)cc(F)c1 (stereo not shown) [Example 102B, N^2-(4-(4-Chloro-1H-imidazol-1-yl)-3-methoxyphenyl)-7-(3,5-difluorophenyl)-N^4-methyl-6,7-dihydro-5H-cyclopenta[d]pyrimidine-2,4-diamine]",
10 to 100,,"COc1cc(Nc2nc3c(c(N4CC(N(C)C)C4)n2)CCC3c2ccc(F)cc2)ccc1-n1cnc(Cl)c1 (stereo not shown) [Example 34, N-(4-(4-chloro-1H-imidazol-1-yl)-3-methoxyphenyl)-4-(3-(dimethylamino)azetidin-1-yl)-7-(4-fluorophenyl)-6,7-dihydro-5H-cyclopenta[d]pyrimidin-2-amine]",
,,"COc1cc(Nc2nc3c(c(N4CC(F)(F)C4)n2)CCC3c2cc(F)c(F)c(F)c2)ccc1-n1cnc(Cl)c1 (stereo not shown) [Example 108, N-(4-(4-Chloro-1H-imidazol-1-yl)-3-methoxyphenyl)-4-(3,3-difluoroazetidin-1-yl)-7-(3,4,5-trifluorophenyl)-6,7-dihydro-5H-cyclopenta[d]pyrimidin-2-amine]",IC50 [2]: 20 nM
,1.5 to 9.9,"CNc1nc(Nc2ccc(-n3cnc(Cl)c3)c(OC)c2)nc2c1COCC2c1ccc(Cl)cc1 (single isomer, unassigned) [Example 64A, N^2-(4-(4-chloro-1H-imidazol-1-yl)-3-methoxyphenyl)-8-(4-chlorophenyl)-N^4-methyl-7,8-dihydro-5H-pyrano[4,3-d]pyrimidine-2,4-diamine]",
,1.5 to 9.9,CCNc1nc(Nc2ccc(-n3cnc(Cl)c3)c(OC)c2)nc2c1CN(CC(F)(F)F)CC2c1ccccc1 (stereo not shown) [Example 196A],
100 to 1000,,"CNc1nc(Nc2ccc(C#N)cc2)nc2c1CN(S(C)(=O)=O)CC2c1ccc(F)cc1 (stereo not shown) [Example 207, 4-(8-(4-fluorophenyl)-4-(methylamino)-6-(methylsulfonyl)-5,6,7,8-tetrahydropyrido[4,3-d]pyrimidin-2-ylamino)benzonitrile]",
1.5 to 9.9,,"CCNc1nc(Nc2ccc(-n3cnc(Cl)c3)c(OC)c2)nc2c1COCC2c1cc(F)cc(F)c1 (racemic) [Example 112, N2-(4-(4-chloro-1H-imidazol-1-yl)-3-methoxyphenyl)-8-(3,5-difluorophenyl)-N4-ethyl-7,8-dihydro-5H-pyrano[4,3-d]pyrimidine-2,4-diamine, TFA]",
,10 to 100,"COc1cc(Nc2nc3c(c(N4CCCC4C)n2)CCC3c2ccc(F)cc2)ccc1-n1cnc(Cl)c1 (single isomer, unassigned) [Example 20B, N-(4-(4-chloro-1H-imidazol-1-yl)-3-methoxyphenyl)-7-(4-fluorophenyl)-4-(2-methylpyrrolidin-1-yl)-6,7-dihydro-5H-cyclopenta[d]pyrimidin-2-amine]",
,10 to 100,"CCNc1nc(Nc2ccc(-n3cnc(Cl)c3)c(OC)c2)nc2c1CCC2c1ccc(OC(F)(F)F)cc1 (single isomer, unassigned) [Example 98B, N^2-(4-(4-Chloro-1H-imidazol-1-yl)-3-methoxyphenyl)-N^4-ethyl-7-(4-(trifluoromethoxy)phenyl)-6,7-dihydro-5H-cyclopenta[d]pyrimidine-2,4-diamine]",
> 1000,,"CNc1nc(Nc2ccc(F)c(OC)c2)nc2c1CCC2c1ccccc1 (stereo not shown) [Example 222, N2-(4-fluoro-3-methoxyphenyl)-N4-methyl-7-phenyl-6,7-dihydro-5H-cyclopenta[d]pyrimidine-2,4-diamine]",
,,"COc1cc(Nc2nc3c(c(N4CCN(C)CC4)n2)CCC3c2ccc(F)cc2)ccc1-n1cnc(Cl)c1 (single isomer, unassigned) [Example 30B, N-(4-(4-chloro-1H-imidazol-1-yl)-3-methoxyphenyl)-7-(4-fluorophenyl)-4-(4-methylpiperazin-1-yl)-6,7-dihydro-5H-cyclopenta[d]pyrimidin-2-amine]",IC50 [2]: 230 nM
,10 to 100,"COc1cc(Nc2nc(N[C@H](C)C3CC3)c3c(n2)C(c2ccc(F)cc2)CC3)ccc1-n1cnc(Cl)c1 (single isomer, unassigned) [Example 49B]",
,10 to 100,"CCNc1nc(Nc2ccc(-n3cnc(Cl)c3)c(OC)c2)nc2c1COC2c1ccc(F)cc1 (single isomer, unassigned) [Example 75B, N^2-(4-(4-chloro-1H-imidazol-1-yl)-3-methoxyphenyl)-N^4-ethyl-7-(4-fluorophenyl)-5,7-dihydrofuro[3,4-d]pyrimidine-2,4-diamine]",
,1.5 to 9.9,"CNc1nc(Nc2ccc(-n3cnc(Cl)c3)c(OC)c2)nc2c1CCC2c1ccccc1 (single isomer, unassigned) [Example 7A, N^2-(4-(4-chloro-1H-imidazol-1-yl)-3-methoxyphenyl)-N^4-methyl-7-phenyl-6,7-dihydro-5H-cyclopenta[d]pyrimidine-2,4-diamine]",
10 to 100,,"CNc1nc(Nc2ccc(-n3ncnc3C)c(OC)c2)nc2c1CC[C@@H]2c1ccc(F)cc1 [Example 264B, (R)-7-(4-fluorophenyl)-N2-(3-methoxy-4-(5-methyl-1H-1,2,4-triazol-1-yl)phenyl)-N4-methyl-6,7-dihydro-5H-cyclopenta[d]pyrimidine-2,4-diamine]",
1.5 to 9.9,,"CCNc1nc(Nc2ccc(-n3cnc(Cl)c3)c(OC)c2)nc2c1CCN(S(C)(=O)=O)C2c1ccc(F)cc1 (stereo not shown) [Example 168A, N2-(4-(4-chloro-1H-imidazol-1-yl)-3-methoxyphenyl)-N4-ethyl-8-(4-fluorophenyl)-7-(methylsulfonyl)-5,6,7,8-tetrahydropyrido[3,4-d]pyrimidine-2,4-diamine]",
,1.5 to 9.9,"CNc1nc(Nc2ccc(-n3cnc(Cl)c3)c(OC)c2)nc2c1CCC2c1ccc(Cl)cc1 (single isomer, unassigned) [Example 94A, N^2-(4-(4-chloro-1H-imidazol-1-yl)-3-methoxyphenyl)-7-(4-chlorophenyl)-N^4-methyl-6,7-dihydro-5H-cyclopenta[d]pyrimidine-2,4-diamine]",
1.5 to 9.9,,"CNc1nc(Nc2ccc(-c3cnn(C)c3)c(OC)c2)nc2c1CCC2c1ccccc1 (stereo not shown) [Example 209, N2-(3-methoxy-4-(1-methyl-1H-pyrazol-4-yl)phenyl)-N4-methyl-7-phenyl-6,7-dihydro-5H-cyclopenta[d]pyrimidine-2,4-diamine]",
10 to 100,,"COc1cc(Nc2nc3c(c(N4CC(F)(F)C4)n2)CCC3c2ccc(F)cc2)ccc1-n1cnc(Cl)n1 (racemic) [Example 17, N-(4-(3-chloro-1H-1,2,4-triazol-1-yl)-3-methoxyphenyl)-4-(3,3-difluoroazetidin-1-yl)-7-(4-fluorophenyl)-6,7-dihydro-5H-cyclopenta[d]pyrimidin-2-amine]",
10 to 100,,"CNc1nc(Nc2ccc(-n3ncnc3C)c(F)c2)nc2c1CCC2c1ccccc1 (stereo not shown) [Example 3, N2-(3-fluoro-4-(5-methyl-1H-1,2,4-triazol-1-yl)phenyl)-N4-methyl-7-phenyl-6,7-dihydro-5H-cyclopenta[d]pyrimidine-2,4-diamine]",
